Tests used:
[1] = test system: gastrointestinal GVHD patients; details: cited from earlier work
[2] = test system: patients with Grade II GVHD with GI symptoms; test: Phase III randomized, double-blind, placebo-controlled trial: treatment failure with oral BDP plus 10 days of prednisone; type: in vivo, human; details: for Cumulative events (treatment failures): full analysis set, 62 randomized
Excerpt: The Secondary objectives of the study were:
To be eligible for entry into the study, patients were at least 10 days post allogeneic hematopoietic cell transplantation, have GI symptoms consistent with Grade II GVHD, and had endoscopic evidence of GVHD. The diagnosis of GVHD was confirmed by biopsy of the intestine (esophagus, stomach, small intestine, or colon) or skin. A total of 129 eligible patients were randomized to one of two treatment groups.
(§1) The randomization was stratified by the source of the allograft (two HLA haplotype identical sibling versus all other), and by topical corticosteroid use (yes versus no). All patients received 10 days of prednisone at 1 mg/kg/day (or an equivalent dose of intravenous [IV] corticosteroid). On Study Day 10, patients determined by the investigator to have their GVHD controlled had their prednisone tapered rapidly over 7 days starting on Study Day 11, and received a maintenance prednisone dose of 0.0625 mg/kg/day for the remainder of the study. BDP doses were evenly divided to include equal quantities of the IR and EC formulations administered four times per day.
1. Treatment failure, defined as use of prednisone or equivalent IV corticosteroids at doses higher than stated in protocol, or addition of other immunosuppressant medications.
The primary efficacy endpoint of this two-arm study was the time to treatment failure. The primary efficacy analysis will compare the time to treatment failure through Study Day 50 using a log-rank test controlling for patient randomization stratum. Product-limit estimates for time to failure will be provided for descriptive purposes. The null hypothesis for the log-rank test is that time to failure is homogeneous across the treatment groups.
Secondary analyses of treatment failure compared the treatment groups with respect to proportion of treatment failures and Karnofsky Scale (or Lansky Scale) scores at key time points. The difference in proportion of treatment failures on Study Days 10, 30, 50, 60, and 80 was evaluated using a two-sided Fisher's Exact test of the null hypothesis of no difference between the treatment groups. The difference in Karnofsky Scale (or Lansky Scale) scores at the same time points was evaluated using a two-sided Wilcoxon test to evaluate the null hypothesis of no difference in medians between treatment groups.
On Study Day 10, patients were evaluated for the signs and symptoms of GVHD. Patients in both treatment groups who met the response criterion of adequately controlled GVHD, as judged by the investigator, had their prednisone tapered over 7 days starting on Study Day 11 (Table 2). Starting on Study Day 17, physiologic replacement doses of prednisone were given for the remainder of the study. If the investigator determined that GVHD was not controlled on Study Day 10, patients discontinued study drug but continued prednisone initially at 1 mg/kg/day; these patients were considered to be treatment failures. In treatment failure cases, physicians subsequently modifiedy prednisone dosage as deemed appropriate.
One hundred and twenty-nine (129) post-bone marrow transplant patients presenting with Grade II iGVHD were enrolled in the randomized, double-blind, placebo-controlled, multi-center clinical trial, which was conducted at 16 bone marrow transplant centers in the United States and France. All patients in the Phase III clinical trial were initially treated with a constant daily dose of high dose (1-2 mg/kg) prednisone, which is the current standard therapy, in combination with an oral dose of either orBec® (8 mg/day) or placebo for the first 10 days. On day 10, if patients were responding to treatment, the high dose prednisone was rapidly tapered and patients continued to receive either orBec® or placebo orally for an additional forty days. […]

Grade II GI GVHD = details: capsule form, 8 mg/day divided into 4 equal doses; cited from earlier work
[3] = test system: patients with Grade II GVHD with gastrointestinal symptoms; details: oral BDP 8 mg/day for 30 days as adjuvant to prednisone; cited from earlier work
[4] = test system: patients with Grade II GVHD with GI symptoms; test: Phase III trial: survival/mortality through 200 days post-transplant; type: in vivo, human
Method: 5. To compare the treatment groups with respect to total deaths and cause of death through 200 days post-transplant.
as §1
7. Patient survival through day 200 post-transplant.
One hundred and twenty-nine (129) post-bone marrow transplant patients presenting with Grade II iGVHD were enrolled in the randomized, double-blind, placebo-controlled, multi-center clinical trial, which was conducted at 16 bone marrow transplant centers in the United States and France. All patients in the Phase III clinical trial were initially treated with a constant daily dose of high dose (1-2 mg/kg) prednisone, which is the current standard therapy, in combination with an oral dose of either orBec® (8 mg/day) or placebo for the first 10 days. On day 10, if patients were responding to treatment, the high dose prednisone was rapidly tapered and patients continued to receive either orBec® or placebo orally for an additional forty days. The primary endpoint of the study was a comparison between the two treatment arms of the time to treatment failure, defined as the need for additional therapies due to uncontrolled signs or symptoms of GVHD. Secondary endpoints in the study included a comparison of the proportion of treatment failures and clinical scores at 10 Days, 30 Days, 50 Days, 60 Days and 80 Days post-randomization, a comparison of cumulative exposure to systemic steroids, as well as a comparison of mortality at Day 200 post-transplant.

[5] = up to 28 days of BDP 8 mg/day, both groups (taking prednisone or not)
[6] = 200 days post-transplant, safety population, 61 evaluable
[7] = orBec n = 62, p 0.006 vs placebo

CCC(=O)OCC(=O)[C@@]1(OC(=O)CC)[C@@H](C)C[C@H]2[C@@H]3CCC4=CC(=O)C=C[C@]4(C)[C@@]3(Cl)[C@@H](O)C[C@@]21C [BDP, Beclomethasone 17,21-dipropionate]
study drug associated adverse events reported ([1]; BDP 8 mg/day for 28 days): mild metallic taste and mild peri-umbilical heaviness | treatment-related adverse events ([1]; BDP 8 mg/day for 28 days): No significant treatment-related adverse events were observed | timing of response versus historical high dose prednisone ([1]; BDP alone group): appeared to be slower | gastrointestinal symptoms versus baseline [1, 5]: abatement of most gastrointestinal symptoms | oral food intake versus baseline [1, 5]: increase in oral food intake | Cumulative treatment failure rate (Kaplan-Meier estimate) ([2]; Study day 10, P = 0.1538 vs placebo): 0.14 | Cumulative events (treatment failures) ([2]; Study day 10): 8 | Cumulative treatment failure rate (Kaplan-Meier estimate) ([2]; Study day 30, P = 0.3625 vs placebo): 0.25 | Cumulative events (treatment failures) ([2]; Study day 30): 15 | Cumulative treatment failure rate (Kaplan-Meier estimate) ([2]; Study day 50, P = 0.0515 vs placebo): 0.31 | Cumulative events (treatment failures) ([2]; Study day 50): 18 | Cumulative treatment failure rate (Kaplan-Meier estimate) ([2]; Study day 60, P = 0.0558 vs placebo): 0.33 | Cumulative events (treatment failures) ([2]; Study day 60): 19 | Cumulative treatment failure rate (Kaplan-Meier estimate) ([2]; Study day 80, P = 0.0048 vs placebo): 0.39 | Cumulative events (treatment failures) ([2]; Study day 80): 22 | time to treatment failure through Day 50 (primary endpoint) versus placebo ([2]; log-rank, p-value 0.1177): did not achieve statistical significance | Treatment Failure Rate at Study Day 80 ([2]; orBec 8 mg/day for 50 days + prednisone, n = 62, p 0.0048 vs placebo): 39% | Treatment Failure Rate at Study Day 50 ([2]; orBec 8 mg/day for 50 days + prednisone, n = 62, p 0.0515 vs placebo): 31% | time to treatment failure through Day 80 (secondary endpoint) versus placebo ([2]; p-value 0.0226): did achieve statistical significance | clinical benefit in treatment of Grade II GI GVHD (Grade II GI GVHD): provide clinical benefit | gastrointestinal symptoms (nausea, vomiting, diarrhea) versus placebo group [3]: all improved | proportion of patients with increased oral caloric intake versus prednisone plus placebo [3]: significantly higher proportion | Survival status: Alive, number of subjects [4, 6]: 56 | Survival status: Alive, percent of subjects [4, 6]: 92% | Survival status: Dead, number of subjects [4, 6]: 5 | Survival status: Dead, percent of subjects [4, 6]: 8% | reduction in mortality versus placebo group ([4]; Day 200 post-transplant period): 70% | Mortality Rate at 200 Days Post-Transplant [4, 7]: 8% | Mortality at 200 Days Post-Transplant, number of deaths [4, 7]: 5 | Day 200 survival rate ([4]; safety population, Z = 2.750, P = 0.0060 vs placebo): 0.91
